Measurements published in patent US10806726B2, “Methods of using indazole-3-carb oxamides and their use as Wnt/B-catenin signaling pathway inhibitors” (Samumed, LLC, priority 2016, dated 2020).

Tests used:
[1] = test system: Wnt-responsive promoter driving firefly luciferase in SW480 cells; assay: Wnt reporter (SP5 promoter-luciferase) screening assay in SW480 cells; assay type: cell-based; settings: Homo sapiens, 24-40 h, top concentration ten micromolar
Summary of the method: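 SW480 (APC-mutant colon) cells stably transduced with lentiviral SP5-promoter (eight TCF/LEF sites) firefly luciferase, ~10,000 cells/well. Signals normalized to DMSO controls for EC50 fitting.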

[2] = test system: primary human mesenchymal stem cells (hMSCs); assay: Tenocyte differentiation screening in hMSCs (SCXA-positive cells, 4 days); assay type: cell-based; settings: 96 h, fold change over DMSO
Summary of the method: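 Primary hMSCs at passage 3–6 were treated with compound, fixed and immunostained for SCXA, and SCXA-positive cells per well were counted by imaging. Counts were normalized to DMSO wells as fold change, averaged over triplicates, and EC50 was fitted, with high-dose values manually corrected for solubility.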

Row | EC50 [1] | EC50 [2] | Compound
1 | 175 nM | > 100000 nM | CN(C)C(=O)Nc1cncc(-c2ccc3[nH]nc(C(=O)Nc4cccnc4)c3c2)c1 [compound 1, 5-(5-(3,3-dimethylureido)pyridin-3-yl)-N-(pyridin-3-yl)-1H-indazole-3-carboxamide]
2 | 71 nM | > 100000 nM | O=C(Nc1cnccc1C(F)(F)F)c1n[nH]c2ccc(-c3cncc(CN4CCCCC4)c3)cc12 [compound 47, 5-(5-(Piperidin-1-ylmethyl)pyridin-3-yl)-N-(4-(trifluoromethyl)pyridin-3-yl)-1H-indazole-3-carboxamide]
3 | 110 nM | 9750 nM | CCOc1ccc(NC(=O)c2n[nH]c3ccc(-c4cncc(CN5CCCCC5)c4)cc23)cn1 [compound 45, N-(6-Ethoxypyridin-3-yl)-5-(5-(piperidin-1-ylmethyl)pyridin-3-yl)-1H-indazole-3-carboxamide]
4 | 65 nM | 10200 nM | CN(C)CCN(C)c1ccc(NC(=O)c2n[nH]c3ccc(-c4cncc(CN5CCCCC5)c4)cc23)cn1 [compound 74, N-(6-((2-(Dimethylamino)ethyl)(methyl)amino)pyridin-3-yl)-5-(5-(piperidin-1-ylmethyl)pyridin-3-yl)-1H-indazole-3-carboxamide]
5 | 239 nM | > 100000 nM | O=C(Nc1ccc2c(c1)OCO2)c1n[nH]c2ccc(-c3cncc(CN4CCCCC4)c3)cc12 [compound 78, N-(Benzo[d][1,3]dioxol-5-yl)-5-(5-(piperidin-1-ylmethyl)pyridin-3-yl)-1H-indazole-3-carboxamide]
6 | 200 nM | > 100000 nM | O=C(Nc1ccc(C(F)(F)F)nc1)c1n[nH]c2ccc(-c3cccnc3)cc12 [compound 3, 5-(Pyridin-3-yl)-N-(6-(trifluoromethyl)pyridin-3-yl)-1H-indazole-3-carboxamide]
7 | 40 nM | > 100000 nM | O=C(NC1CCCC1)c1ccc(NC(=O)c2n[nH]c3ccc(-c4cncc(CN5CCCCC5)c4)cc23)cn1 [compound 184, N-(6-(Cyclopentylcarbamoyl)pyridin-3-yl)-5-(5-(piperidin-1-ylmethyl)pyridin-3-yl)-1H-indazole-3-carboxamide]
8 | 65 nM | > 100000 nM | O=C(Nc1ccc(C(F)(F)F)nc1)c1n[nH]c2ccc(-c3cncc(NC(=O)C4CC4)c3)cc12 [compound 39, 5-(5-(Cyclopropanecarboxamido)pyridin-3-yl)-N-(6-(trifluoromethyl)pyridin-3-yl)-1H-indazole-3-carboxamide]
9 | 57 nM | > 100000 nM | O=C(Nc1cccnc1)c1n[nH]c2ccc(-c3cccc(CN4CCCC4)c3)cc12 [compound 49, N-(Pyridin-3-yl)-5-(3-(pyrrolidin-1-ylmethyl)phenyl)-1H-indazole-3-carboxamide]
10 | 25 nM | > 100000 nM | O=C(Nc1ccc(N2CCCC2)nc1)c1n[nH]c2ccc(-c3cncc(CN4CCCCC4)c3)cc12 [compound 71, 5-(5-(Piperidin-1-ylmethyl)pyridin-3-yl)-N-(6-(pyrrolidin-1-yl)pyridin-3-yl)-1H-indazole-3-carboxamide]
11 | 158 nM | > 100000 nM | O=C(Nc1cncc(Cc2ccccc2)c1)c1n[nH]c2ccc(-c3cncc(CN4CCCCC4)c3)cc12 [compound 80, N-(5-Benzylpyridin-3-yl)-5-(5-(piperidin-1-ylmethyl)pyridin-3-yl)-1H-indazole-3-carboxamide]
12 | 1200 nM | > 100000 nM | CN(C)Cc1cncc(-c2ccc3[nH]nc(C(=O)Nc4ccc(N5CCCC5)nc4)c3c2)c1 [compound 190, 5-(5-((Dimethylamino)methyl)pyridin-3-yl)-N-(6-(pyrrolidin-1-yl)pyridin-3-yl)-1H-indazole-3-carboxamide]
13 | 460 nM | > 100000 nM | CN1CCN(c2cncc(-c3ccc4[nH]nc(C(=O)Nc5ccc(N6CCCC6)nc5)c4c3)c2)CC1 [compound 186, 5-(5-(4-Methylpiperazin-1-yl)pyridin-3-yl)-N-(6-(pyrrolidin-1-yl)pyridin-3-yl)-1H-indazole-3-carboxamide]
